Data as given in the supplement of paper PMC10307832.

Tests used:
Assay in all cases: relative viability (nuclei count vs DMSO), 5 days (fraction); higher = more cells survive
[1] = compound: CCC1=CN=CN=C1N2CCN(CC2)CC3=NC4=C(N3)C=C(C=C4)C(F)(F)F
Outline: (§1)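 For viability, nuclei in each treated well were divided by nuclei in vehicle wells and the median across plates was taken. Lung cancer cell lines in 1536-well plates were pinned with five library-drug doses (not always all listed) spaced by √10, cultured 5 days without medium change, and imaged at 4× after Hoechst staining, with plates passing only at control CV below 25% and at least one doubling.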

Mirin = compound: N=C1NC(=O)/C(=C/c2ccc(O)cc2)S1 [Mirin]
Outline: as §1

[2] = compound: CCn1c(-c2nonc2N)nc2cnc(Oc3cccc(NC(=O)c4ccc(OCCN5CCOCC5)cc4)c3)cc21
Outline: as §1

[3] = compound: CCC1=CN=CN=C1N2CCN(CC2)CC3=NC4=C(N3)C=C(C=C4)C(F)(F)F + Cc1nc(NC(=O)N2CCC[C@H]2C(N)=O)sc1-c1ccnc(C(C)(C)C(F)(F)F)c1 [Alpelisib] (partner 2 µM)
Outline: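 Dosing by pin tool came one day after lung cancer cell lines were seeded in 1536-well plates, using either one drug or a fixed anchor-drug dose plus five library-drug doses (not always all listed) in √10 steps. After 5 days, nuclei were counted on 4× images. Relative viability is treated-well nuclei count divided by vehicle-well nuclei count, and values are medians of duplicate plates.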

| Cell Line | relative viability ([1]; 0.04 µM) | relative viability ([1]; 0.1265 µM) | relative viability ([1]; 0.4 µM) | relative viability ([1]; 1.265 µM) | relative viability ([1]; 4 µM) | relative viability (Mirin; 0.25 µM) | relative viability (Mirin; 0.7906 µM) | relative viability (Mirin; 2.5 µM) | relative viability (Mirin; 7.906 µM) | relative viability (Mirin; 25 µM) | relative viability ([2]; 0.04 µM) | relative viability ([2]; 0.1265 µM) | relative viability ([2]; 0.4 µM) | relative viability ([2]; 1.265 µM) | relative viability ([2]; 4 µM) | relative viability ([3]; first compound 0.04 µM) | relative viability ([3]; first compound 0.1265 µM) | relative viability ([3]; first compound 0.4 µM) | relative viability ([3]; first compound 1.265 µM) | relative viability ([3]; first compound 4 µM) |
| --- | --- | --- | --- | --- | --- | --- | --- | --- | --- | --- | --- | --- | --- | --- | --- | --- | --- | --- | --- | --- |
| H3255 | 0.97 | 0.95 | 0.913 | 0.874 | 0.919 | 0.982 | 0.962 | 0.992 | 0.936 | 1 | 1.14 | 1.01 | 0.898 | 0.67 | 0.732 | 0.742 | 0.721 | 0.711 | 0.67 | 0.65 |
| NCI-H23 | 0.852 | 0.918 | 0.812 | 0.742 | 0.954 | 1 | – | 0.907 | 0.819 | 0.907 | 1.21 | 1 | 0.567 | 0.674 | 0.589 | 0.807 | 0.652 | 0.706 | 0.599 | 0.781 |
| CAL-12T | 0.985 | 0.941 | 0.958 | 0.974 | 1.01 | 1.07 | 0.861 | 1.02 | 0.982 | 1.23 | 1.33 | 1.13 | 0.927 | 0.479 | 0.654 | 1.25 | 1.16 | 1.06 | 1.32 | 1.09 |
| A-427 | 0.885 | 0.961 | 0.857 | 0.808 | 0.887 | 0.983 | 0.716 | 1.02 | 0.961 | 1.03 | 1.23 | 0.936 | 0.727 | 0.587 | 0.444 | 1.08 | 1.08 | 0.99 | 0.986 | 0.791 |
| HARA | 0.891 | 0.902 | 0.863 | 0.654 | 1.08 | 1.09 | 0.803 | 0.918 | 0.939 | 0.916 | 1.11 | 0.782 | 0.563 | 0.258 | 0.28 | 0.858 | 0.744 | 0.816 | 0.651 | 0.812 |
| NCI-H1793 | 0.894 | 0.796 | 0.702 | – | 0.796 | 1.1 | – | 0.987 | 0.914 | 0.826 | 0.897 | 0.838 | 0.526 | 0.587 | 0.483 | 0.618 | 0.553 | 0.557 | – | 0.637 |
| NCI-H2009 | 1.08 | 0.991 | 0.989 | 0.963 | 0.933 | 1.01 | 1.08 | 1.04 | 0.843 | 1.01 | 0.978 | 0.754 | 0.676 | 0.374 | 0.418 | 1.24 | 1.12 | 1.12 | 1.19 | 1.14 |
| ABC-1 | 0.946 | 0.807 | 0.816 | 0.742 | 0.828 | 0.996 | 0.806 | 0.949 | 0.759 | 0.487 | 1.09 | 0.906 | 0.545 | 0.452 | 0.447 | 0.987 | 1 | 1.08 | 0.942 | 0.971 |
| IA-LM | 0.839 | 0.96 | 0.891 | 0.931 | 0.89 | 0.962 | 1.07 | 0.928 | 0.653 | 1.18 | 1.34 | 1.06 | 0.998 | 0.952 | 1.02 | 0.805 | 0.752 | 0.668 | 0.766 | 0.748 |
| NCI-H441 | 1.09 | 0.926 | 0.896 | 0.877 | 1.09 | 1.11 | 1.01 | 1.1 | 0.886 | 0.993 | 1.26 | 1.12 | 0.541 | 0.807 | 0.727 | 0.662 | 0.629 | 0.762 | 0.753 | 0.612 |
| NCI-H1792 | 0.79 | 0.749 | 0.814 | – | 0.96 | 0.775 | 0.925 | 0.859 | 0.711 | 1.06 | 1.05 | 0.773 | 0.343 | 0.458 | 0.599 | 0.696 | 0.685 | 0.641 | 0.503 | 0.65 |
| LXF-289 | 1.1 | 0.944 | 0.953 | 1.05 | 0.99 | 0.997 | 1.1 | 0.999 | 1.06 | 1.13 | 1.07 | 1.12 | 0.965 | 0.858 | 0.762 | 1.01 | 1.01 | 0.972 | 0.996 | 0.974 |
| HCC-827 | 1.05 | 1.04 | 0.998 | 0.942 | 0.988 | 1.03 | 1.09 | 1.01 | 1.02 | 1.19 | 1.02 | 0.961 | 0.911 | 0.821 | 0.756 | 1 | 0.926 | 0.969 | 0.988 | 0.956 |
| EMC-BAC-2 | 0.77 | 0.877 | 0.925 | 0.802 | 1.15 | 0.993 | 0.907 | 1.01 | 0.857 | 0.971 | 0.94 | 0.862 | 0.43 | 0.405 | 0.343 | 0.748 | 0.697 | 0.726 | 0.723 | 0.774 |
| NCI-H596 | 1.01 | 0.935 | 0.882 | 0.736 | 1.08 | 0.996 | 1 | 1.02 | 1.02 | 0.973 | 1.01 | 0.869 | 0.799 | 0.865 | 0.83 | 0.573 | 0.431 | 0.443 | 0.459 | 0.508 |
| NCI-H1755 | 1.05 | 0.937 | 0.978 | 0.872 | 1 | 1.03 | 1.01 | 1.01 | 1.02 | 1.13 | 1.02 | 0.913 | 0.71 | 0.627 | 0.577 | 0.881 | 0.913 | 0.923 | 0.862 | 0.895 |
| NCI-H1993 | 0.968 | 0.921 | 0.809 | 0.916 | 0.945 | 0.914 | 0.75 | 1.08 | 0.941 | 0.879 | 0.985 | 0.878 | 0.603 | 0.793 | 0.82 | 0.593 | 0.623 | 0.743 | 0.77 | 0.727 |
